This is an account of results in ChEMBL document CHEMBL5625201, “Discovery and structure-activity relationship studies of novel α-ketoamide derivatives targeting the SARS-CoV-2 main protease” (Eur J Med Chem, 2023).

The test system of data set [1] is SARS-CoV-2. As to the kind of experiment: Antiviral activity against SARS-CoV-2 infected in human HPAEpiC cells assessed as reduction in viral replication by RT-qPCR assay. The data set is classed as functional, organism-based. Particulars: Severe acute respiratory syndrome coronavirus 2, HPAEpiC. (In qPCR the cycle at which signal appears reflects the starting amount.)

In data set [2] the target is T1, Replicase polyprotein 1ab (Severe acute respiratory syndrome coronavirus 2, UniProt P0DTD1). As to the kind of experiment: Inhibition of SARS-CoV-2 main protease by FRET assay.
Another data set has as its target Cytochrome P450 3A4 (Homo sapiens, UniProt P08684). As to the kind of experiment: Inhibition of CYP3A4 (unknown origin). The class given is ADME.
Another data set has as its target Cytochrome P450 2C9 (Homo sapiens, UniProt P11712). As to the kind of experiment: Inhibition of CYP2C9 (unknown origin). The data set is classed as ADME.
A short description of data set [3]: Cytotoxicity against human BEAS-2B cells. The class given is toxicity, cell-based.
The nature of data set [4]: Cytotoxicity against African green monkey Vero cells. The class given is toxicity, cell-based. Particulars: chlorocebus sabaeus; call rule not given here.
In data set [5] the target is T1, Replicase polyprotein 1ab. Briefly: Inhibition of SARS-CoV-2 Main protease using MCA-AVLQSGFR-Lys(DNP)-Lys-NH2 as substrate preincubated for 10 mins followed by substrate addition by FRET assay.
Data set [6] concerns SARS-CoV-2. As to the kind of experiment: Antiviral activity against SARS CoV-2 infected in African green monkey VeroE6/TMPRSS2 assessed as reduction in plaque formation measured after 2 days by crystal violet staining based assay. The data set is classed as functional, organism-based. Particulars: Severe acute respiratory syndrome coronavirus 2, VeroE6/TMPRSS2, 48 h.

Sequence of Cytochrome P450 2C9 (P11712 whole entry): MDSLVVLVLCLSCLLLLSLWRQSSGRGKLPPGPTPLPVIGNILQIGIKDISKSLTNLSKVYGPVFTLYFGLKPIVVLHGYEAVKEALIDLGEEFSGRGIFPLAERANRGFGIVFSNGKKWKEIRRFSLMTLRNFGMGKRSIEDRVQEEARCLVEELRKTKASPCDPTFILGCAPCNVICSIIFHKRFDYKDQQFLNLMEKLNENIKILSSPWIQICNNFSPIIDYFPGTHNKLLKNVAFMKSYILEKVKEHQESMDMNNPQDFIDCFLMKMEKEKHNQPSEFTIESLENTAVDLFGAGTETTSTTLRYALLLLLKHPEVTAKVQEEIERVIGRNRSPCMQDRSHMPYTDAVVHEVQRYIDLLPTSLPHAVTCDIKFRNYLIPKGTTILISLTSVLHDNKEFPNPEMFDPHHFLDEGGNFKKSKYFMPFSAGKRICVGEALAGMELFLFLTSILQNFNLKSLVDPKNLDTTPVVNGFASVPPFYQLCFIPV
Sequence of Cytochrome P450 3A4 (P08684 whole entry): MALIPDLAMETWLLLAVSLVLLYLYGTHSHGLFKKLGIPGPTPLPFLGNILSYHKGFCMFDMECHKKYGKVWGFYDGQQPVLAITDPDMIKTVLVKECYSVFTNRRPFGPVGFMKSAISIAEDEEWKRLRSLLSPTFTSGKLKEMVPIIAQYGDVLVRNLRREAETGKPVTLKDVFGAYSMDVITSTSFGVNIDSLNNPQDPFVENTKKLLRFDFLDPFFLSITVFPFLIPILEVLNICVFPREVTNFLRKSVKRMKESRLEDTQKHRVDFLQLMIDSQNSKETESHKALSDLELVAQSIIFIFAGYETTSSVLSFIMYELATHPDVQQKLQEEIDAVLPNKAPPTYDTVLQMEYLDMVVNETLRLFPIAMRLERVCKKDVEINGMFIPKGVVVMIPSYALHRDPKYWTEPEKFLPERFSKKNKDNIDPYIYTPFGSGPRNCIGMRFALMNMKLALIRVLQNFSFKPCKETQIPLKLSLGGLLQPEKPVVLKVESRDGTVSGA

A word on the EC50: it is the midpoint of the concentration-response curve. For the compound `CCC(CC)COC(=O)[C@H](C)N[P@](=O)(OC[C@H]1O[C@@](C#N)(c2ccc3c(N)ncnn23)[C@H](O)[C@@H]1O)Oc1ccccc1`, in the data set with SARS-CoV-2 [1], the EC50 came to 0.364 µM.

Regarding `CC(C)(C)[C@H](NC(=O)C(F)(F)F)C(=O)N1C[C@H]2[C@@H]([C@H]1C(=O)N[C@H](C#N)C[C@@H]1CCNC1=O)C2(C)C`, in the data set on SARS-CoV-2 [1], the EC50 came out at 0.05 µM.

In general, IC50 refers to the concentration that inhibits the measured activity by half. In data set [2], `O=C(NCc1ccccn1)C(=O)[C@@H](Cc1ccccc1)NC(=O)[C@H]1COCCN1C(=O)[C@@H]1C[C@@H]2[C@H](C1)C2(F)F` showed an IC50 of 0.0236 µM.

In data set [2], `O=C(CCCc1ccccc1)N[C@H](Cc1ccccc1)C(=O)C(=O)NCc1ccccn1` had an IC50 of 0.0338 µM. For the same compound, the “inhibition (INH)” value against Cytochrome P450 3A4 and against Cytochrome P450 2C9 was “Active” each time.

In the case of `O=C(CNC(=O)[C@@H]1C[C@@H]2[C@H](C1)C2(F)F)N[C@H](Cc1ccccc1)C(=O)C(=O)NCc1ccccn1`, in data set [2], the IC50 worked out at 0.0179 µM.

Regarding `C[C@@H](NC(=O)CC1CCC(F)(F)CC1)C(=O)N[C@H](Cc1ccccc1)C(=O)C(=O)NCc1ccccn1`, it took 0.0161 µM to reach half-maximal inhibition in data set [2] (IC50).

On to `CN(CC(=O)N[C@H](Cc1ccccc1)C(=O)C(=O)NCc1ccccn1)C(=O)C1CCC(F)(F)CC1`, for which the half-maximal inhibitory concentration (IC50) in data set [2] was 0.0306 µM.

Compound `N#Cc1cc(C(=O)NCC(=O)N[C@H](Cc2ccccc2)C(=O)C(=O)NCc2ccccn2)ccc1F` had an IC50 in data set [2] of 0.168 µM.

In data set [2], `O=C(CNC(=O)c1ccccc1)N[C@H](Cc1ccccc1)C(=O)C(=O)NCc1ccccn1` gave an IC50 of 0.141 µM. For the same compound, the “inhibition (INH)” value against Cytochrome P450 3A4 and against Cytochrome P450 2C9 was “Active” throughout.

Turning to `O=C(CCc1ccccc1)N[C@H](Cc1ccccc1)C(=O)C(=O)NCc1ccccn1`, the IC50 in data set [2] was 0.0867 µM. Moreover, the “inhibition (INH)” value against Cytochrome P450 3A4 and at Cytochrome P450 2C9 was “Active” in each case.

The CC50 is the concentration at which the toxic effect on the cells reaches its halfway point. Consider `COC[C@@H](NC(=O)C1CCC(F)(F)CC1)C(=O)N[C@H](Cc1ccccc1)C(=O)C(=O)NCc1ccccn1`, for which the CC50 in data set [3] and in data set [4] was above 100 µM throughout. The EC50 with SARS-CoV-2 [1] turned out to be 0.0595 µM. In data set [2], the IC50 stood at 0.017 µM.

In the case of `O=C(CNC(=O)C1CCC(F)(F)CC1)N[C@H](Cc1ccc(Cl)c(Cl)c1)C(=O)C(=O)NCc1ccccn1`, the IC50 in data set [2] is 0.0344 µM.

Regarding `C[C@@H](NC(=O)C1CCC(F)(F)CC1)C(=O)N[C@H](Cc1ccccc1)C(=O)C(=O)NCc1ccccn1`, the cytotoxic concentration (CC50) in data set [3] and in data set [4] was above 100 µM throughout. For the same compound, the EC50 with SARS-CoV-2 [1] was found to be 0.0653 µM.

As for `C[C@@H](NC(=O)[C@@H]1C[C@@H]2[C@H](C1)C2(F)F)C(=O)N[C@H](Cc1ccccc1)C(=O)C(=O)NCc1ccccn1`, the CC50 in data set [3] and in data set [4] was above 100 µM throughout. Besides, the EC50 in the data set with SARS-CoV-2 [1] is 0.0978 µM.

`O=C(Cc1ccccc1)N[C@H](Cc1ccccc1)C(=O)C(=O)NCc1ccccn1`: in data set [2], the IC50 worked out at 0.219 µM.

In the case of `O=C(CNC(=O)C1CCC(F)(F)CC1)N[C@H](Cc1ccccc1)C(=O)C(=O)NCc1ccccn1`, the CC50 in data set [3] and in data set [4] was above 100 µM in each case. Moreover, the EC50 in the data set with SARS-CoV-2 [1] was determined as 0.102 µM.

With `O=C(NCc1ccccn1)C(=O)[C@@H](Cc1ccccc1)NC(=O)[C@H]1CC(F)(F)CN1C(=O)[C@@H]1C[C@@H]2[C@H](C1)C2(F)F`, in data set [2], the 50% inhibitory concentration (IC50) worked out at 0.0372 µM.

As for `O=C(NCc1ccccn1)C(=O)[C@@H](Cc1ccccc1)NC(=O)[C@H]1CC(F)(F)CN1C(=O)CC1CCC(F)(F)CC1`, the IC50 in data set [2] amounted to 0.035 µM.

In data set [2], `O=C(NCc1ccccn1)C(=O)[C@@H](Cc1ccccc1)NC(=O)c1ccccc1` gave an IC50 of 0.208 µM.

`O=C(CC1CCC(F)(F)CC1)NCC(=O)N[C@H](Cc1ccccc1)C(=O)C(=O)NCc1ccccn1`: the IC50 in data set [2] was determined as 0.015 µM.

`O=C(COc1ccccc1)N[C@H](Cc1ccccc1)C(=O)C(=O)NCc1ccccn1`: the IC50 in data set [2] amounted to 0.0555 µM. The “inhibition (INH)” value on Cytochrome P450 3A4 and against Cytochrome P450 2C9 was “Active” each time.

As to `O=C(NCc1ccccn1)C(=O)[C@@H](Cc1ccccc1)NC(=O)C1(NC(=O)C2CCC(F)(F)CC2)CC1`, half-maximal inhibition in data set [2] (IC50) was put at 0.0212 µM.

In turn, `O=C(CNC(=O)c1ccc(Cl)c(F)c1)N[C@H](Cc1ccccc1)C(=O)C(=O)NCc1ccccn1` showed an IC50 in data set [2] of 0.0185 µM.

With `CC[C@@H](NC(=O)C1CCC(F)(F)CC1)C(=O)N[C@H](Cc1ccccc1)C(=O)C(=O)NCc1ccccn1`, the IC50 in data set [2] came out at 0.0416 µM.

Turning to `O=C(NCc1ccccn1)C(=O)[C@@H](Cc1ccccc1)NC(=O)[C@H]1COCCN1C(=O)CC1CCC(F)(F)CC1`, the CC50 in data set [3] and in data set [4] was above 100 µM in each case. For the same compound, the EC50 in the data set with SARS-CoV-2 [1] is 0.0664 µM. The same compound came in with a half-inhibitory concentration (IC50) in data set [2] of 0.0109 µM.

Compound `[2H][C@](C(=O)N[C@@H](C)c1ccc(F)cc1)(c1ccccc1)N(C(=O)C(C)=O)c1ccc2c(c1)oc1ccccc12` yielded a half-maximal inhibitory concentration (IC50) in data set [5] of 0.008 µM. In addition, the EC50 in the data set on SARS-CoV-2 [6] is 0.011 µM.
